The values below come from US6376710B2, “Amidine compounds and their use as pesticides” (Sumitomo Chemical Co., Ltd., priority 2000, dated 2002).

In general, mortality refers to the share of the test organisms that died.

The structures appear in SMILES notation. Read-outs that look alike come from different tables or passages of the source.

Format in all cases: in vivo
For assay [1], the system named is German cockroach (Blattella germanica). Nature of the assay: Test Example 2: treated filter paper with sucrose bait, German cockroach male adults, mortality. Conditions: 144 h.
Assay [2] relates to house fly (Musca domeestica). Nature of the assay: Test Example 3: treated filter paper with sucrose bait, house fly female adults, mortality. Conditions: 24 h. As to the method:
On the bottom of a polyethylene cup of 5.5 cm in diameter was placed a filter paper of the same size, to which a water dilution (500 ppm) of each of the formulations obtained from present compounds 1, 2, 3, 4, 5, 6, 7, 8, 9, 10, 11, 12, 13, 14, 15, 16, 17, 18, 19, 20, 21, 25, 26, 27, 28, 29, 32, 33, 34, 35, 36, 37, 38, 39, 40, 41, 42, 43, 44, 45, 47, 51, 52, 53, 54, 55, 60, and 61 according to Formulation Example 1 was added dropwise in an amount of 0.7 ml, and the cup was uniformly charged with about 30 mg of sucrose as a bait. Ten female adults of house fly (Musca domeestica) were set free in each cup, which was then kept covered. After 1 day, their survival was examined to determine the mortality.

The test system of assay [3] is common mosquito (Culex pipiens pallens). The assay can be described thus: Test Example 4: treated water, common mosquito final-instar larvae, mortality. Conditions: 192 h.
The mark [4] stands for this setting: water dilution (500 ppm) of flowable (Formulation Example 1), 0.7 ml on filter paper, male adults, after 6 days, read-out: mortality.
[5] abbreviates: active ingredient 3.5 ppm in ion-exchanged water (0.7 ml of 500 ppm dilution), final-instar larvae, after 8 days, read-out: mortality.

Turning to `NC(=Nc1c(Cl)cc(C(F)(F)F)cc1[N+](=O)[O-])C(F)(F)F` [present compound 1, N-(2-chloro-6-nitro-4-trifluoromethylphenyl)-2,2,2-trifluoroacetamidine], the mortality at 500 µg/mL in assay [1] and in assay [2] was 100% throughout.
Turning to `NC(=Nc1c(F)cc(C(F)(F)F)cc1F)C(F)(F)F` [present compound 2, N-(2,6-Difluoro-4-trifluoromethylphenyl)-2,2,2-trifluoroacetamidine], the mortality at 500 µg/mL in assay [1] and in assay [2] was 100% each time.
As to `NC(=Nc1c(Cl)cc(C(F)(F)F)cc1Cl)C(F)(F)F` [present compound 3, N-(2,6-Dichloro-4-trifluoromethylphenyl)-2,2,2-trifluoroacetamidine], the mortality at 500 µg/mL in assay [1] and in assay [2] was 100% throughout. This compound also displayed a mortality at 3.5 ppm in assay [3] of 100%.
With `NC(=Nc1c(Cl)cc(C(F)(F)F)cc1Cl)C(F)(F)C(F)(F)F` [present compound 4, N-(2,6-dichloro-4-trifluoromethylphenyl)-2,2,3,3,3-pentafluoropropionamidine], the mortality at 500 µg/mL in assay [1] and in assay [2] was 100% each time. This compound came in with a mortality at 3.5 ppm in assay [3] of 100%.
`NC(=Nc1c(Cl)cc(C(F)(F)F)cc1Cl)C(F)(F)Cl` [present compound 5, 2-Chloro-N-(2,6-dichloro-4-trifluoromethylphenyl)-2,2-difluoroacetamidine]: the mortality at 500 µg/mL in assay [1] and in assay [2] was 100% in each case. This compound also came in with a mortality at 3.5 ppm in assay [3] of 100%.
As for `NC(=Nc1c([N+](=O)[O-])cc(C(F)(F)F)cc1[N+](=O)[O-])C(F)(F)C(F)(F)F` [present compound 6, N-(2,6-Dinitro-4-trifluoromethylphenyl)-2,2,3,3,3-pentafluoropropionamidine], the mortality at 500 µg/mL in assay [1] and in assay [2] was 100% throughout. The compound further registered a mortality at 3.5 ppm in assay [3] of 100%.
In the case of `NC(=Nc1c(Cl)cc(C(F)(F)F)cc1Cl)C(F)F` [present compound 7, N-(2,6-Dichloro-4-trifluoromethylphenyl)-2,2-difluoroacetamidine], the mortality at 500 µg/mL in assay [1] and in assay [2] was 100% each time.
For the compound `NC(=Nc1c(Cl)cc(C(F)(F)F)cc1[N+](=O)[O-])C(F)(F)C(F)(F)F` [present compound 8, N-(2-Chloro-6-nitro-4-trifluoromethylphenyl)-2,2,3,3,3-pentafluoropropionamidine], the mortality at 500 µg/mL in assay [1] and in assay [2] was 100% in each case. Besides, the mortality at 3.5 ppm in assay [3] was 100%.
`NC(=Nc1c(F)cc(C(F)(F)F)cc1F)C(F)(F)C(F)(F)F` [present compound 9, N-(2,6-Difluoro-4-trifluoromethylphenyl)-2,2,3,3,3-pentafluoropropionamidine]: the mortality at 500 µg/mL in assay [1] and in assay [2] was 100% each time. The compound also gave a mortality at 3.5 ppm in assay [3] of 100%.
In the case of `NC(=Nc1c(Cl)cc(C(F)(F)F)cc1Br)C(F)(F)C(F)(F)F` [present compound 10, N-(2-Bromo-6-chloro-4-trifluoromethylphenyl)-2,2,3,3,3-pentafluoropropionamidine], the mortality at 500 µg/mL in assay [1] and in assay [2] was 100% each time. In assay [3], the mortality at 3.5 ppm was determined as 100%.
In the case of `NC(=Nc1c(Cl)cc(C(F)(F)F)cc1Cl)C(F)(F)C(F)(F)C(F)(F)F` [present compound 11, N-(2,6-Dichloro-4-trifluoromethylphenyl)-2,2,3,3,4,4,4-heptafluorobutyramidine], the mortality at 500 µg/mL in assay [1] (setting [4]) stood at 100%; in assay [2] (water dilution (500 ppm) of flowable (Formulation Example 1), 0.7 ml on filter paper, female adults, after 1 day, read-out: mortality), 100%. Further, the mortality at 3.5 ppm in assay [3] (setting [5]) amounted to 100%.
Take `NC(=Nc1c(Cl)cc(C(F)(F)F)cc1Cl)C(Cl)Cl` [present compound 12, 2,2-Dichloro-N-(2,6-dichloro-4-trifluoromethylphenyl)acetamidine]: the mortality at 500 µg/mL in assay [1] and in assay [2] was 100% in each case. This compound showed a mortality at 3.5 ppm in assay [3] of 100%.
Consider `NC(=Nc1c(F)cc(C(F)(F)F)cc1Cl)C(F)(F)F` [present compound 13, N-(2-Chloro-6-fluoro-4-trifluoromethylphenyl)-2,2,2-trifluoroacetamidine], for which the mortality at 500 µg/mL in assay [1] and in assay [2] was 100% in each case. Also, the mortality at 3.5 ppm in assay [3] was 100%.
Turning to `N#Cc1cc(C(F)(F)F)cc(Cl)c1N=C(N)C(F)(F)C(F)(F)F` [present compound 14, N-(2-Chloro-6-cyano-4-trifluoromethylphenyl)-2,2,3,3,3-pentafluoropropionamidine], the mortality at 500 µg/mL in assay [1] and in assay [2] was 100% throughout. For the same compound, in assay [3], the mortality at 3.5 ppm is 100%.
On to `Cc1cc(C(F)(F)F)cc(Cl)c1N=C(N)C(F)(F)C(F)(F)F` [present compound 15, N-(2-Chloro-6-methyl-4-trifluoromethylphenyl)-2,2,3,3,3-pentafluoropropionamidine], for which the mortality at 500 µg/mL in assay [1] and in assay [2] was 100% in each case. Also, the mortality at 3.5 ppm in assay [3] is 100%.
In the case of `NC(=Nc1c(Br)cc(OC(F)(F)F)cc1Br)C(F)(F)C(F)(F)F` [present compound 16, N-(2,6-Dibromo-4-trifluoromethoxyphenyl)-2,2,3,3,3-pentafluoropropionamidine], the mortality at 500 µg/mL in assay [1] and in assay [2] was 100% in each case. This compound yielded a mortality at 3.5 ppm in assay [3] of 100%.
As for `NC(=Nc1c(Cl)cc(C(F)(F)F)cc1Cl)C(F)(F)C(F)(F)C(F)(F)C(F)(F)F` [present compound 30, N-(2,6-Dichloro-4-trifluoromethylphenyl)-2,2,3,3,4,4,5,5,5-nonafluoropentanamidine], the mortality at 500 µg/mL in assay [1] (setting [4]) amounted to 100%. Besides, in assay [3] (setting [5]), the mortality at 3.5 ppm is 100%.
As to `NC(=Nc1c(Cl)cc(C(F)(F)F)cc1Cl)C(F)(F)C(F)(F)C(F)(F)C(F)(F)C(F)(F)F` [present compound 31, N-(2,6-Dichloro-4-trifluoromethylphenyl)-2,2,3,3,4,4,5,5,6,6,6-undecafluorohexanamidine], the mortality at 3.5 ppm in assay [3] (setting [5]) amounted to 100%.
With `NC(=Nc1c([N+](=O)[O-])cc(C(F)(F)F)cc1[N+](=O)[O-])C(F)(F)F` [present compound 33, N-(2,6-Dinitro-4-trifluoromethylphenyl)-2,2,2-trifluoroacetamidine], the mortality at 500 µg/mL in assay [1] and in assay [2] was 100% each time.
Regarding `NC(=Nc1c([N+](=O)[O-])cc(C(F)(F)C(F)(F)C(F)(F)F)cc1[N+](=O)[O-])C(F)(F)C(F)(F)C(F)(F)F` [present compound 48, N-(2,6-Dinitro-4-heptafluoropropylphenyl)-2,2,3,3,4,4,4-heptafluorobutyramidine], in assay [3], the mortality at 3.5 ppm came out at 100%.
As for `NC(=Nc1c([N+](=O)[O-])cc(C(F)(F)C(F)(F)C(F)(F)F)cc1[N+](=O)[O-])C(F)(F)F` [present compound 49, N-(2,6-Dinitro-4-heptafluoropropylphenyl)-2,2,2-trifluoroacetamidine], the mortality at 500 µg/mL in assay [1] was found to be 100%. This compound gave a mortality at 3.5 ppm in assay [3] of 100%.
For the compound `NC(=Nc1c([N+](=O)[O-])cc(C(F)(C(F)(F)F)C(F)(F)F)cc1[N+](=O)[O-])C(F)(F)C(F)(F)C(F)(F)F` [present compound 50, N-{2,6-Dinitro-4-(1,2,2,2-tetrafluoro-1-trifluoromethylethyl)phenyl}-2,2,3,3,4,4,4-heptafluorobutyramidine], in assay [1], the mortality at 500 µg/mL turned out to be 100%. The compound further registered a mortality at 3.5 ppm in assay [3] of 100%.
Regarding `CN(C)C(=Nc1c(Cl)cc(C(F)(F)F)cc1Cl)C(F)(F)F` [present compound 52, N′-(2,6-dichloro-4-trifluoromethylphenyl)-2,2,2-trifluoro-N,N-dimethylacetamidine], the mortality at 500 µg/mL in assay [1] and in assay [2] was 100% each time.
Consider `CCCN(CCC)C(=Nc1c(Cl)cc(C(F)(F)F)cc1Cl)C(F)(F)F` [present compound 56, N′-(2,6-dichloro-4-trifluoromethylphenyl)-2,2,2-trifluoro-N,N-dipropylacetamidine], for which, in assay [1], the mortality at 500 µg/mL turned out to be 100%.
Consider `CCN(CC)C(=Nc1c(Cl)cc(C(F)(F)F)cc1Cl)C(F)(F)F` [present compound 57, N′-(2,6-Dichloro-4-trifluoromethylphenyl)-N,N-diethyl-2,2,2-trifluoroacetamidine], for which the mortality at 500 µg/mL in assay [1] was determined as 100%. The mortality at 3.5 ppm in assay [3] was determined as 100%.
For the compound `CCNC(=Nc1c(Cl)cc(C(F)(F)F)cc1Cl)C(Cl)Cl` [present compound 58, N′-(2,6-Dichloro-4-trifluoromethylphenyl)-2,2-dichloro-N-ethylacetamidine], the mortality at 500 µg/mL in assay [1] is 100%. Besides, in assay [3], the mortality at 3.5 ppm turned out to be 100%.
In turn, `CCNC(=Nc1c([N+](=O)[O-])cc(C(F)(F)F)cc1[N+](=O)[O-])C(Cl)Cl` [present compound 59, 2,2-Dichloro-N′-(2,6-dinitro-4-trifluoromethylphenyl)-N-ethylacetamidine] showed a mortality at 500 µg/mL in assay [1] of 100%. Further, the mortality at 3.5 ppm in assay [3] came to 100%.
